Results taken from patent US10426757B2, “Compositions and methods for promoting intestinal stem cell and/or non-stem progenitor cell function” (Whitehead Institute for Biomedical Research, priority 2014, dated 2019).
Entries after “also recorded” stand apart in the source; their conditions may differ.

Legend:
[1] = system: Lgr5-GFP^hi ISCs and Lgr5-GFP^low progenitors; experiment: Flow cytometry enumeration of Lgr5-GFP^hi ISCs and Lgr5-GFP^low progenitors in Lgr5-EGFP-IRES-CreERT2 mice; type: in vivo, mouse; conditions: GW501516 4 mg/kg daily IP, 2-4 weeks, vs vehicle
Description: Mice were housed in the Unit for Laboratory Animal Medicine at the Whitehead Institute for Biomedical Research and Koch Institute for Integrative Cancer Research. Lgr5-EGFP-IRES-CreERT2 mice (strain name: B6.129P2-Lgr5^tm1(cre/ERT2)Cle/J, stock number 008875), and Rosa26-lacZ mice (strain name: B6.129S4-Gt(ROSA)26Sor^tm1Sor/J, stock number 003474) were obtained from the Jackson Laboratory. […] Control mice were age-matched and fed normal chow ad libitum. GW501516 (Enzo) was reconstituted in DMSO at 4.5 mg ml^−1 and diluted 1:10 in a solution of 5% PEG400 (Hampton Research), 5% Tween80 (Sigma), 90% H2O for a daily intraperitoneal injection of 4 mg/kg.
As previously reported and briefly summarized here, small intestines were removed, washed with cold PBS−/−, opened laterally and cut into 3-5 mm fragments. Pieces were washed multiple times with cold PBS−/− until clean, washed 2-3 with PBS−/−/EDTA (10 mM), and incubated on ice for 90-120 minutes while mixing at 30-minute intervals. Crypts were then mechanically separated from the connective tissue by shaking, and filtered through a 70-μm mesh into a 50-ml conical tube to remove villous material and tissue fragments. At this point the suspension was mainly composed of crypts. […] For ISC isolation, the crypt suspensions were dissociated to individual cells with TrypLE Express (Invitrogen). Cell labeling consisted of an antibody cocktail comprising CD45-PE (eBioscience, 30-F1 1), CD31-PE (Biolegend, Mecl3.3), Ter119-PE (Biolegend, Ter119), CD24-Pacific Blue (Biolegend, M1/69), CD117-APC/Cy7 (Biolegend, 2BS), and EPCAM-APC (eBioscience, G8.8). ISCs were isolated as Lgr5-EGFP^hiEpcam^+CD24^low/−CD31^−Ter119 CD45^−7-AAD^−. EGFP^low progenitors were isolated as EGFP^lowEpcam^+CD24^low/−CD31^−Ter119^−CD45^−7-AAD^−, and Paneth cells were isolated as CD24^hiSidescatter^hiLgr5-EGFP^−Epcam^+CD31^−Ter119^−CD45^−7-AAD^− with a BD FACS Aria II SORP cell sorter into supplemented crypt culture medium for culture. Dead cells were excluded from the analysis with the viability dye 7-AAD (Life Technologies).

[2] = system: Apc-null Lgr5-GFP^hi ISCs and Lgr5-GFP^low progenitors; experiment: Orthotopic transplantation of Apc-null cells into recipient colons; type: in vivo, mouse; conditions: 10,000 cells from GW501516-treated mice; for adenoma initiation by transplanted Apc-null Lgr5-GFP^low progenitors: vehicle 0±0
Description: (§1) To test this possibility, the present inventors generated Apc^loxp/loxp; Lgr5-EGFP-IRES-CreERT2 mice to assess whether pharmacological PPAR-δ activation modifies the tumorigenic capacity of the Lgr5-GFP^low progenitors. Injection with tamoxifen leads to Apc-loss in the Lgr5-GFP^hi ISCs, which in turn generate Apc-null Lgr5-GFP^low progenitors. Four days after tamoxifen administration, we flow sorted Apc-null Lgr5-GFP^hi ISCs and Lgr5-GFP^low progenitors from vehicle and PPAR-δ agonist treated mice to assess the tumor-forming potential of these populations using separate assays (FIG. 7B): first, we examined their ability to give rise to adenomatous organoids in culture; and second, we interrogated the ability of 10,000 freshly sorted stem and progenitor cells to initiate adenomatous lesions in syngeneic recipient colons.
Apc^loxp/loxp; Lgr5-EGFP-IRES-CreERT2 mice were treated with vehicle or GW501516 for one month, and then injected with two doses of tamoxifen I.P. Four days later, Apc-null Lgr5-GFP^hi ISCs and Lgr5-GFP^low progenitors were sorted by flow cytometry, as described above. For primary cell transplantations, 10,000 Apc-null Lgr5-GFP^hi ISCs and Lgr5-GFP^low progenitors were resuspended into 90% crypt culture media (as described) and 10% Matrigel™, then transplanted into the colonic lamina propria of C57BL/6 recipient mice by optical colonoscopy using an injection needle (Hamilton Inc., part number 7750-21, 30 gauge, Kel-F Hub NDL, 14 inches length, 45 degree bevel) and specialized syringe (Hamilton Inc, part number 81242, 500 μL, Model 1750 LT Threaded Plunger). Optical colonoscopy was performed using a Karl Storz Image 1 HD Camera System, Image 1 HUB CCU, 175 Watt Xenon Light Source, and Richard Wolf 1.9 mm/9.5 Fr Integrated Telescope (part number 8626.431). Four injections were performed per mouse. Mice then underwent colonoscopy four weeks later to assess tumor formation. Colonoscopy videos and images were saved for offline analysis. […]

small intestinal crypts = experiment: Crypt organoid-forming (clonogenicity) assay in 3-D culture; type: cell-based, mouse; conditions: crypts from GW501516-treated mice vs vehicle
[3] = system: Apc-null Lgr5-GFP^hi ISCs and Lgr5-GFP^low progenitors; experiment: In vitro adenomatous organoid formation by Apc-null ISCs and progenitors; type: cell-based, mouse
Description: as §1
(§2) Isolated ISCs or progenitor cells were centrifuged for 5 minutes at 250 g, re-suspended in the appropriate volume of crypt culture medium (500-1,000 cells μl^−1), then seeded onto 25-30 μl Matrigel™ (Corning 356231 growth factor reduced) containing 1 μM jagged (Ana-Spec) in a flat bottom 48-well plate (Corning 3548). Alternatively, ISCs and Paneth cells were mixed after sorting in a 1:1 ratio, centrifuged, and then seeded onto Matrigel™. The Matrigel™ and cells were allowed to solidify before adding 300 μl of crypt culture medium. The crypt media was changed every second or third day. Organoid bodies were quantified on days 3, 7 and 10 of culture, unless otherwise specified. With respect to the study results presented in FIGS. 14-16, organoid bodies were quantified on day 3-4. In secondary experiments, individual primary organoids were mechanically dissociated and re-plated, or organoids were dissociated for 10 minutes in TrypLE Express at 32° C., re-suspended with SMEM (Life Technologies), centrifuged and re-suspended in cold SMEM with viability dye 7-AAD. Live cells were sorted and seeded onto Matrigel™ as previously described.

aged crypts = experiment: Stem cell frequency and organoid formation in aged mice; type: in vivo, mouse
Method: as §2, with “described. With respect to the study results presented in FIGS. 14-16, young mice were 2-4 months old. Old mice range from 18-25 months of age. The mice were on a standard chow diet. Mice received a single daily injection with the indicated amount of GW501516 or vehicle in the afternoon. Intestines were harvested the following morning.” for “described.”

[4] = system: Olfm4+ ISCs and Cryptdin 4+ Paneth cells; experiment: In situ hybridization for Olfm4 and Cryptdin 4, proximal jejunum; type: in vivo, mouse; conditions: GW501516-treated mice vs vehicle
Description: The in situ hybridization probes used in this study correspond to expressed sequence tags or fully sequenced cDNAs obtained from Open Biosystems. The accession numbers (IMAGE mouse cDNA clone in parenthesis) for these probes are as follows: mouse Olfm4 BC141127 (9055739), mouse Cryptdin 4 BC134360 (40134597). Both sense and antisense probes were generated to ensure specificity by in vitro transcription using DIG RNA labelling mix (Roche) according to the manufacturer's instructions and to previously published detailed methods.^24,44

Lgr5-GFP^low progenitors = experiment: Organoid formation by sorted Lgr5-GFP^low progenitors; type: cell-based, mouse; conditions: progenitors from GW501516-treated mice, vs vehicle
Method: as §2

β-catenin = β-catenin nuclear localization by immunostaining; type: in vivo, mouse; conditions: GW501516-treated mice vs vehicle

Cc1cc(SCc2sc(-c3ccc(C(F)(F)F)cc3)nc2C)ccc1OCC(=O)O [GW501516, 2-[2-methyl-4-[[4-methyl-2-[4-(trifluoromethyl)phenyl]-1,3-thiazol-5-yl]methylsulfanyl]phenoxy]acetic acid]
number of Lgr5-GFP^low progenitors ([1]; 4 mg/kg): not in progenitor cells; also recorded: no effect
number/frequency of Lgr5-GFP^hi ISCs ([1]; 4 mg/kg): augmented; also recorded: selective increase; also recorded: doubled the number
number/frequency of Lgr5-GFP^hi ISCs ([1]; listed as GW501515): sufficient to enhance
adenoma initiation by transplanted Apc-null Lgr5-GFP^low progenitors [2]: initiated tumors
adenoma initiation by transplanted Apc-null Lgr5-GFP^low progenitors ([2]; listed as PPAR-δ agonist): 0.58±0.16
intestinal adenoma formation by transplanted Apc-null Lgr5-GFP^hi ISCs ([2]; vehicle 0.67±0.13, listed as PPAR-δ agonist): 0.61±0.19
organoid-forming capacity of intestinal crypts (small intestinal crypts): more organoids; also recorded: boosted the organoid-forming capacity
in vitro adenoma-initiating potential of Apc-null Lgr5-GFP^low progenitors ([3]; GW501516-treated mice, EN media, vehicle 0.04±0.05): 0.18±0.07
in vitro adenomatous organoid-forming potential of Apc-null Lgr5-GFP^hi ISCs ([3]; GW501516-treated vs vehicle): not altered
increase of in vitro adenomatous organoid forming potential of Apc-null Lgr5-GFP^low progenitors ([3]; GW501516-treated vs vehicle, EN media): four-fold
in vitro adenomatous organoid-forming potential of Apc-null Lgr5-GFP^hi ISCs ([3]; GW501516-treated vs vehicle, listed as PPAR-δ agonist): as clonogenic as those from vehicle controls
organoid formation of co-cultured ISCs and Paneth cells from aged animals (aged crypts; GW501516 vs old vehicle, day 3): significantly boosts organoid formation
frequency of organoid formation in aged crypts (aged crypts; aged mice, GW501516 treatment): increases the frequency of organoid formation
frequency of stem cells (aged crypts; aged mice, GW501516 treatment): increases the frequency of stem cells
Cryptdin 4+ Paneth cell numbers [4]: no impact; also recorded: remained unchanged
Olfm4+ ISC numbers per jejunal crypt [4]: augmented; also recorded: increased
organoid-initiating capacity of Lgr5-GFP^low progenitors (Lgr5-GFP^low progenitors): possess the potential to autonomously form organoid bodies; also recorded: conferred organoid-initiating capacity
organoid-initiating capacity of Lgr5-GFP^low progenitors (Lgr5-GFP^low progenitors; listed as GW501515): sufficient to enhance
organoid-initiating capacity of Lgr5-GFP^low progenitors (Lgr5-GFP^low progenitors; listed as PPAR-δ agonist): capable of forming organoids
nuclear β-catenin in stem and progenitor cells of crypts (intestinal sections) (β-catenin): increased nuclear β-catenin localization
nuclear β-catenin localization in flow sorted ISCs and progenitors (β-catenin): increased nuclear β-catenin localization
nuclear β-catenin in stem and progenitor cells of crypts (intestinal sections) (β-catenin; listed as PPAR-δ agonist): greater percentage
nuclear β-catenin localization in flow sorted ISCs and progenitors (β-catenin; listed as PPAR-δ agonist): more nuclear β-catenin accumulation
